Columns and labels:
Format in all cases: physicochemical
[1] = Photostability (light exposure, ICH Q1B); conditions: for Total Imp./Deg. Products (%): tablets
Description: In some embodiments, and the Examples presented herein, the tablet formulation includes sofosbuvir having Form 6 and, optionally, a trace amount of Form 7.
Tablet cores and film-coated tablets were evaluated per ICH Q1B guidelines with a total of illumination of more than 1.2 million-lux hours and a total irradiance of more than 200 W·hr/m^2.

[2] = Tablet dissolution in 50 mM sodium acetate buffer pH 5.0 with 2.0% w/v Polysorbate 80 and 0.001% w/v BHT, 75 rpm, 900 mL, 37° C., USP Type II
Description: FIGS. 10-12 depict additional dissolution profiles for the sofosbuvir/velpatasvir SSD/voxilaprevir SSD tablets having the formulation described in Table 13 and which were used in phase 1, 2, and 3 clinical studies, where the dissolution testing was conducted at pH 5.0 acetate buffer containing 2.0% w/v polysorbate 80. Four batches of the sofosbuvir/velpatasvir SSD/voxilaprevir SSD tablets were tested, with Batch A manufactured at 100 kg and Batches B, C and D manufactured at 145 kg. All other aspects of the formulation and manufacturing process were otherwise equivalent. The four batches were packed in the same commercial configuration: 28 count, 100 mL HPDE bottle with 1 g silica gel desiccant canister and a polyester fiber coil. […] Moreover, for Batch A, the amount dissolved at 30 min remained between 98 and 100% for sofosbuvir, between 90 and 92% for velpatasvir SSD, and between 89 and 93% for voxilaprevir SSD. […] For Batch D, the amount dissolved at 30 min remained at 100% for sofosbuvir, between 90 and 91% for velpatasvir SSD, and between 89 and 91% for voxilaprevir SSD. Release of velpatasvir SSD and voxilaprevir SSD from the sofosbuvir/velpatasvir SSD/voxilaprevir SSD tablets associated with all four Batches was complete after 60 minutes.

[3] = BCS classification
[4] = Tablet dissolution in 50 mM sodium acetate buffer pH 5.0 with 2.0% w/v Polysorbate 80 and 0.001% w/v BHT, 75 rpm, 900 mL, 37° C., USP Type II; remark: listed apart in the source

## CC(C)OC(=O)C(C)N[P@](=O)(OC[C@H]1O[C@@H](n2ccc(=O)[nH]c2=O)[C@](C)(F)[C@@H]1O)Oc1ccccc1 (stereo in doubt) [Sofosbuvir, (S)-isopropyl 2-(((S)-(((2R,3R,4R,5R)-5-(2,4-dioxo-3,4-dihydropyrimidin-1(2H)-yl)-4-fluoro-3-hydroxy-4-methyltetrahydrofuran-2-yl)methoxy)(phenoxy)phosphoryl)amino)propanoate]
[1]; tablets film-coated to weight gains of 2.1 to 5.4%, ICH Q1B
  level of degradation products: 0.0%
[1]; film-coating 0% weight gain, Exposed to Light
  Total Imp./Deg. Products (%): 0.0%
[1]; film-coating 0% weight gain, Protected from Light
  Total Imp./Deg. Products (%): 0.0%
[1]; film-coating 2.1% weight gain, Exposed to Light
  Total Imp./Deg. Products (%): 0.0%
[1]; film-coating 2.1% weight gain, Protected from Light
  Total Imp./Deg. Products (%): 0.0%
[1]; film-coating 3.4% weight gain, Exposed to Light
  Total Imp./Deg. Products (%): 0.0%
[1]; film-coating 3.4% weight gain, Protected from Light
  Total Imp./Deg. Products (%): 0.0%
[1]; film-coating 4.1% weight gain, Exposed to Light
  Total Imp./Deg. Products (%): 0.0%
[1]; film-coating 4.1% weight gain, Protected from Light
  Total Imp./Deg. Products (%): 0.0%
[1]; film-coating 5.4% weight gain, Exposed to Light
  Total Imp./Deg. Products (%): 0.0%
[1]; film-coating 5.4% weight gain, Protected from Light
  Total Imp./Deg. Products (%): 0.0%
[2]; Batch C tablets, closed 1 g desiccant, 30° C./75% RH, 6 months
  Dissolved at 30 min (%): 99%
[2]; Batch C tablets, closed 1 g desiccant, 40° C./75% RH, 1 month
  Dissolved at 30 min (%): 100%
[2]; Batch C tablets, closed 1 g desiccant, Initial, time 0
  Dissolved at 30 min (%): 99%
[2]; tablets Batch A, 30° C./75% RH, 6 mo
  Dissolved at 30 min (%): 100%
[2]; tablets Batch A, 40° C./75% RH, 3 mo
  Dissolved at 30 min (%): 99%
[2]; tablets Batch A, Initial, 0 mo
  Dissolved at 30 min (%): 98%
[2]; tablets Batch B, 40° C./75% RH, 6 mo
  Dissolved at 30 min (%): 98%
[2]; tablets Batch D
  amount dissolved at 30 min: 100%
[2]; tablets Batch D, 40° C./75% RH, 1 mo
  Dissolved at 30 min (%): 100%
[3]
  aqueous solubility, pH dependence: high and pH-independent aqueous solubility
[4]; Batch C tablets, closed 1 g desiccant, 25° C./60% RH, 6 months
  Dissolved at 30 min (%): 99%
[4]; Batch C tablets, closed 1 g desiccant, 30° C./75% RH, 3 months
  Dissolved at 30 min (%): 99%
[4]; Batch C tablets, closed 1 g desiccant, 40° C./75% RH, 3 months
  Dissolved at 30 min (%): 100%
[4]; Batch C tablets, closed 1 g desiccant, 40° C./75% RH, 6 months
  Dissolved at 30 min (%): 99%
[4]; Lot A tablets (super-potent VEL SSD, super-potent VOX SSD), Initial, time 0
  Dissolved at 30 min (%): 100%
[4]; Lot A tablets (super-potent VEL SSD, super-potent VOX SSD), closed, 1 g desiccant, 25° C./60% RH, 12 weeks
  Dissolved at 30 min (%): 99%
[4]; Lot A tablets (super-potent VEL SSD, super-potent VOX SSD), closed, 1 g desiccant, 40° C./75% RH, 12 weeks
  Dissolved at 30 min (%): 100%
[4]; Lot B tablets (sub-potent VEL SSD, sub-potent VOX SSD), Initial, time 0
  Dissolved at 30 min (%): 83%
[4]; Lot B tablets (sub-potent VEL SSD, sub-potent VOX SSD), closed, 1 g desiccant, 25° C./60% RH, 12 weeks
  Dissolved at 30 min (%): 82%
[4]; Lot B tablets (sub-potent VEL SSD, sub-potent VOX SSD), closed, 1 g desiccant, 40° C./75% RH, 4 weeks
  Dissolved at 30 min (%): 85%
[4]; Lot B tablets (sub-potent VEL SSD, sub-potent VOX SSD), closed, 1 g desiccant, 40° C./75% RH, 12 weeks
  Dissolved at 30 min (%): 84%
[4]; Lot B tablets (sub-potent VEL SSD, sub-potent VOX SSD), open, no cap, 40° C./75% RH, 4 weeks
  Dissolved at 30 min (%): 100%
[4]; Lot C tablets (sub-potent VEL SSD, super-potent VOX SSD), Initial, time 0
  Dissolved at 30 min (%): 99%
[4]; Lot C tablets (sub-potent VEL SSD, super-potent VOX SSD), closed, 1 g desiccant, 25° C./60% RH, 12 weeks
  Dissolved at 30 min (%): 98%
[4]; Lot C tablets (sub-potent VEL SSD, super-potent VOX SSD), closed, 1 g desiccant, 40° C./75% RH, 4 weeks
  Dissolved at 30 min (%): 100%
[4]; Lot C tablets (sub-potent VEL SSD, super-potent VOX SSD), closed, 1 g desiccant, 40° C./75% RH, 12 weeks
  Dissolved at 30 min (%): 98%
[4]; Lot C tablets (sub-potent VEL SSD, super-potent VOX SSD), open, no cap, 40° C./75% RH, 4 weeks
  Dissolved at 30 min (%): 99%
[4]; Lot D tablets (super-potent VEL SSD, sub-potent VOX SSD), closed, 1 g desiccant, 25° C./60% RH, 12 weeks
  Dissolved at 30 min (%): 98%
[4]; Lot D tablets (super-potent VEL SSD, sub-potent VOX SSD), closed, 1 g desiccant, 40° C./75% RH, 4 weeks
  Dissolved at 30 min (%): 98%
[4]; Lot D tablets (super-potent VEL SSD, sub-potent VOX SSD), closed, 1 g desiccant, 40° C./75% RH, 12 weeks
  Dissolved at 30 min (%): 98%
[4]; Lot D tablets (super-potent VEL SSD, sub-potent VOX SSD), open, no cap, 40° C./75% RH, 4 weeks
  Dissolved at 30 min (%): 99%
[4]; SSD potency tablets Lot B, after 4 weeks open at 40° C./75% RH
  dissolution at 30 minutes: 100%
[4]; tablet Lots A and B made with different sofosbuvir particle size distributions
  released at 30 minutes: 101%
[4]; tablets Batch A, 25° C./60% RH, 3 mo
  Dissolved at 30 min (%): 98%
[4]; tablets Batch A, 25° C./60% RH, 6 mo
  Dissolved at 30 min (%): 98%
[4]; tablets Batch A, 30° C./75% RH, 3 mo
  Dissolved at 30 min (%): 98%
[4]; tablets Batch A, 40° C./75% RH, 1 mo
  Dissolved at 30 min (%): 98%
[4]; tablets Batch A, 40° C./75% RH, 6 mo
  Dissolved at 30 min (%): 100%
[4]; tablets Batch B, 25° C./60% RH, 3 mo
  Dissolved at 30 min (%): 99%
[4]; tablets Batch B, 25° C./60% RH, 6 mo
  Dissolved at 30 min (%): 99%
[4]; tablets Batch B, 30° C./75% RH, 3 mo
  Dissolved at 30 min (%): 99%
[4]; tablets Batch B, 30° C./75% RH, 6 mo
  Dissolved at 30 min (%): 99%
[4]; tablets Batch B, 40° C./75% RH, 1 mo
  Dissolved at 30 min (%): 100%
[4]; tablets Batch B, 40° C./75% RH, 3 mo
  Dissolved at 30 min (%): 100%
[4]; tablets Batch B, Initial, 0 mo
  Dissolved at 30 min (%): 99%
[4]; tablets Batch D, Initial, 0 mo
  Dissolved at 30 min (%): 100%
[4]; tablets from VEL SSD 7.0% / VOX SSD 3.2% water content, Initial, time 0
  Dissolved at 30 min (%): 100%
[4]; tablets from VEL SSD 7.0% / VOX SSD 3.2% water content, closed, 1 g desiccant, 25° C./60% RH, 12 weeks
  Dissolved at 30 min (%): 98%
[4]; tablets from VEL SSD 7.0% / VOX SSD 3.2% water content, closed, 1 g desiccant, 40° C./75% RH, 12 weeks
  Dissolved at 30 min (%): 99%
[4]; tablets from VEL SSD 7.0% / VOX SSD 3.2% water content, open, no desiccant, 40° C./75% RH, 4 weeks
  Dissolved at 30 min (%): 100%
[4]; tablets from copovidone with 544 ppm (VEL SSD) / 655 ppm (VOX SSD) peroxides, Initial, time 0
  Dissolved at 30 min (%): 99%
[4]; tablets from copovidone with 544 ppm (VEL SSD) / 655 ppm (VOX SSD) peroxides, closed, 1 g desiccant, 25° C./60% RH, 12 weeks
  Dissolved at 30 min (%): 99%
[4]; tablets from copovidone with 544 ppm (VEL SSD) / 655 ppm (VOX SSD) peroxides, closed, 1 g desiccant, 40° C./75% RH, 4 weeks
  Dissolved at 30 min (%): 99%
[4]; tablets from copovidone with 544 ppm (VEL SSD) / 655 ppm (VOX SSD) peroxides, closed, 1 g desiccant, 40° C./75% RH, 12 weeks
  Dissolved at 30 min (%): 99%
[4]; tablets from copovidone with 544 ppm (VEL SSD) / 655 ppm (VOX SSD) peroxides, open, no desiccant, 40° C./75% RH, 4 weeks
  Dissolved at 30 min (%): 100%
[4]; tablets, desiccant study, closed, 1 g desiccant, 40° C./75% RH, 4 weeks
  Dissolved at 30 min (%): 99%
[4]; tablets, desiccant study, closed, 1 g desiccant, 40° C./75% RH, 12 weeks
  Dissolved at 30 min (%): 99%
[4]; tablets, desiccant study, closed, 1 g desiccant, 40° C./75% RH, 24 weeks
  Dissolved at 30 min (%): 100%
[4]; tablets, desiccant study, closed, no desiccant, 25° C./60% RH, 12 weeks
  Dissolved at 30 min (%): 99%
[4]; tablets, desiccant study, closed, no desiccant, 40° C./75% RH, 12 weeks
  Dissolved at 30 min (%): 99%
